Patent US5321030A, “Creatine analogs having antiviral activity” (priority 1991, dated 1994)

Experiments:
creatine kinase [1] = target: T1, creatine kinase (Oryctolagus cuniculus, UniProt P00563); test: Phosphorylation by creatine kinase, coupled assay with pyruvate kinase and LDH; assay type: biochemical; conditions: 40 mM
Experimental: Compound 5/6 (AM 361), where R=CH3, was prepared as described above and assayed for phosphorylation by creatine kinase in a coupled assay with pyruvate kinase and lactate dehydrogenase (LDH) as described (Bergmeyer, H. U., ed. (1974), In: Methods of Enzymatic Analysis, Second English Edition, Volume 4, (Verlag Chemie Weinheim and Academic Press, Inc.: New York, London) pp. 1772-1779). Each compound listed in Table 11 below was tested at a concentration of 40 mM. Compound 5/6 (AM 361) was slowly phosphorylated.

HSV-1 = test: Cytopathic effect (CPE) assay, HSV-1; conditions: for effect on percent monolayer cell death, second set of experiments: 0-200 PFU, series of concentrations; for protective effect: no agar overlay, highest concentrations tested
creatine kinase [2] = target: T1, creatine kinase; conditions: cited from earlier work
[3] = Drug cytotoxicity in CPE assay (monolayer death in absence of virus); conditions: monkey, vero cells
[4] = tested on: Vesicular stomatitis virus (VSV), Indiana strain; assay type: cell-based; conditions: tested in parallel
[5] = tested on: Pseudorabies virus, Aujeszky strain; assay type: cell-based; conditions: similar assay
[6] = tested on: Varicella-Zoster Virus, strain Oka; test: microbe, parasite or virus in culture; assay type: cell-based; conditions: Human alphaherpesvirus 3, MRC5, read-out: plaque reduction
[7] = tested on: Guinea Pig Cytomegalovirus, Strain 22122; test: CPE reduction assay, guinea pig cytomegalovirus in GPE cells; assay type: cell-based; conditions: 12.5 mg/ml

T1 sequence (P00563 whole entry): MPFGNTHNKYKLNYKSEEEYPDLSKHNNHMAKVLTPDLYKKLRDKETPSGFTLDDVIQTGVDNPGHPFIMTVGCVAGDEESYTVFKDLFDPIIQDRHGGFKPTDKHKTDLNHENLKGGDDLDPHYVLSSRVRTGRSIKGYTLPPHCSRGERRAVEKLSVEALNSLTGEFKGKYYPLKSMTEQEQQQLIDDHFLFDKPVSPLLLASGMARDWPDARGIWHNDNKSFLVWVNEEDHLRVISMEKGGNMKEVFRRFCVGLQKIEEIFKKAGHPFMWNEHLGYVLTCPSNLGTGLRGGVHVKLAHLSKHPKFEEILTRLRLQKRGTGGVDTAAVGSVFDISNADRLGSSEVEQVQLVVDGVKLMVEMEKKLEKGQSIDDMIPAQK

Which results are given for “1-carboxymethyl-2-iminomethylimidazolidine [AM 361]”?
% Rate of Creatine (creatine kinase [1]): 2.4%; Δ in Absorbance/min (creatine kinase [1]): 0.041; effect on cytopathic effect (HSV-1; 22.1 mM, Vero cells): reduced the cytopathic effect as compared with the no drug control in wells inoculated with 25 or 50 PFU/well; virus-induced monolayer death (HSV-1; 44.2 mM, Vero cells, each inoculum 12-200 PFU/well (no drug control 30-90%)): 2%; effect on cytopathic effect (HSV-1; 18.2-72.7 mM, serum-starved Vero cells, FIG. 17A): inhibited the cytopathic effect

With `Nc1nccn1CC(=O)O` [1-carboxymethyl-2-aminoimidazole, reference compound] as the compound, how does the “binding to creatine kinase” value (creatine kinase [2]) read?
The value was “an affinity equal to that of cyclocreatine”.

What about the “initial rate of phosphorylation by creatine kinase, slower” value (creatine kinase [2]) of the same compound?
Its value is 5 orders of magnitude.

And the “dose response against cytopathogenicity” value (HSV-1; Vero cells, 0.31-5.0 mg/ml, FIG. 16)?
Its value is “shows no such effect”.

For `N=C1NCCCN1CC(=O)O` [1-carboxymethyl-2-iminohexahydropyrimidine, reference compound], which “effect on percent monolayer cell death, second set of experiments” value (“effect on percent monolayer cell death” for short) (HSV-1; Vero cells) is on record?
The value was “no dose-response or consistent protective effect”.

And the protective effect (HSV-1; Vero cells, 125 PFUs)?
The protective effect was “weak protective effect in some wells”.

Which cytotoxicity at 41700 µM [3] does the source give for `N=C1NCC(=O)N1CC(=O)O` [Compound 7] here?
Its cytotoxicity at 41700 µM is 4%.

And the antiviral activity (HSV-1; 41.7 mM, Vero cells, 12-200 PFU/well)?
Its antiviral activity is “consistent antiviral activity”.

For `CN=C1NCCN1CC(=O)O` [Compound 10a], which cytotoxicity at 38200 µM [3] is on record?
The cytotoxicity at 38200 µM was 5%.

What about the “effect on monolayer death” value (HSV-1; 19.1 mM, 12, 50, 100 or 200 PFU/well, not 25 PFU/well) of the same compound?
Its value is “a reduction in monolayer death”.

For `C=CCN=C1NCCN1CC(=O)O` [Compound 10b], which cytotoxicity at 23000 µM [3] is on record?
Its cytotoxicity at 23000 µM is 7%.

What about the cytotoxicity at 45900 µM [3] of the same compound?
The cytotoxicity at 45900 µM was 30%.

What about the antiviral effect (HSV-1; 2.58-45.90 mM, Vero cells, 12-200 PFU/well) of the same compound?
The antiviral effect was “No consistent antiviral effect”.

Which “effect on percent monolayer cell death” value (HSV-1; Vero cells) does the source give for `CCN(CC(=O)O)C(=N)N` [EGA, N-ethyl-N-amidinoglycine, reference compound] here?
Its value is “no dose-response or consistent protective effect”.

And the protective effect (HSV-1; Vero cells, 125 PFUs)?
The protective effect was “weak protective effect in some wells”.

For `CN(CC(=O)O)C(=N)NP(=O)(O)O` [P-creatine, N-phosphorocreatine, reference compound], which Km (creatine kinase [2]; reverse reaction, without cyclocreatine, read-out: Km of P-creatine) is on record?
Its Km is 1800 µM.

For `NC(=O)c1ncn([C@@H]2O[C@H](CO)[C@@H](O)[C@H]2O)n1` [Ribavirin, reference compound], which “effect on the virus” value [4] is on record?
Its value is “only a moderate effect”.

Which “effect against Pseudorabies virus” value [5] does the source give for `Nc1ncnc2c1ncn2[C@@H]1O[C@H](CO)[C@@H](O)[C@@H]1O` [adenine arabinoside] here?
Its value is “ineffective”.

With `CC(CC(=O)O)C(=N)N` (stereo not shown) [carbocreatine, 3-amidinobutyric acid, reference compound] as the compound, how does the “effect on percent monolayer cell death” value (HSV-1; Vero cells) read?
Its value is “no dose-response or consistent protective effect”.

What about the protective effect (HSV-1; Vero cells, 125 PFUs) of the same compound?
Its protective effect is “weak protective effect in some wells”.

With `CN(CC(=O)O)C(=N)N` [creatine] as the compound, how does the “% Rate of Creatine” value (creatine kinase [1]) read?
The value was 100%.

And the “Δ in Absorbance/min” value (creatine kinase [1])?
Its value is 1.18.

What about the activity (HSV-1; 70 mM, Vero cells, 125 PFUs) of the same compound?
The activity was “some activity”.

Which results are given for `N=C1NCCN1CCC(=O)O` [homocyclocreatine, 1-carboxyethyl-2-iminoimidazolidine, reference compound]?
inhibition at 1000 µg/mL [6]: 36%; inhibition at 2000 µg/mL [6]: 39%; inhibition at 4000 µg/mL [6]: 50%; Ave. CPE [7]: 3.7

What does the source list for `N=C(N)NCCC(=O)O` [β-guanidinopropionate, β-guanidinopropionic acid, reference compound]?
effect on percent monolayer cell death, second set of experiments (HSV-1; Vero cells): no dose-response or consistent protective effect; protective effect (HSV-1; Vero cells, 125 PFUs): weak protective effect in some wells

For isoepoxycreatine [reference compound], which “inactivation of creatine kinase” value (creatine kinase [2]; affinity reagent) is on record?
The value was “completely and irreversibly inactivate creatine kinase”.
